Like-named read-outs stand apart in the source and are kept apart here.
Experiments:
[1] = test system: maize (Zea mays) alcohol dehydrogenase ADH1 gene; experiment: HDR/NHEJ editing of endogenous gene in maize protoplasts (PCR, KpnI/NdeI); assay type: cell-based; details: 0.5 mM GSH
Procedure: A ribonucleoprotein (RNP) was prepared with Cas9 nuclease (Aldevron, Fargo, N. Dak.) and a guide RNA complex designed to edit the first ADH1 exon, consisting of a crRNA (ZmADH1-B) with the sequence
Integrated DNA Technologies, Coralville, Iowa); the donor ssDNA contained three phosphorothioate linkages at each terminus (i.e., the three linkages between the most distal four bases on either end of the strand), and contained a KpnI restriction enzyme digestion site at nucleotide positions 67-72 (shown as underlined text). A double-stranded DNA (purchased from Integrated DNA Technologies, Coralville, Iowa) was designed with a forward strand having the sequence
wherein each strand was phosphorylated on the 5′ end and contained two phosphorothioate linkages at each terminus (i.e., the two linkages between the most distal three bases on either end of the strand); this contained an NdeI restriction site located at nucleotide positions 16-21 of the forward strand (SEQ ID NO:16), shown as underlined font. Insertion of this sequence into the first exon of the target gene ADH1 serves as a proxy readout for efficiency of the NHEJ pathway (i.e., non-homologous repair of the expected DSB).
(§1) Transfection procedures were essentially as described in Example 13. In a first experiment, cells were treated with the HDR ssDNA donor containing a Kpn1 restriction site, or with no donor polynucleotide. After transfection with the editing reagents, the washed and pelleted cells were then resuspended in PIM containing 50 millimolar CaCl2, and then plated in 6-well plates coated with 5% calf serum. The plates were sealed with Parafilm™ and allowed to incubate at 37 degrees Celsius for 1 hour. For the hypoxia treatment, the Parafilm™ was removed and the plates were then placed in a hypoxia chamber having about 5% oxygen by volume at 26 degrees Celsius in the dark. For normoxia treatment, the Parafilm™ was kept in place and the plates were incubated at 26 degrees Celsius in a growth chamber in the dark. Cells were harvested 48 hours and HDR editing efficacy was quantitated by PCR analysis using Phusion™ Flash PCR (Thermo Fisher Scientific, Waltham, Mass.).
as §1, with “In” for “Transfection procedures were essentially as described in Example 13. In”, “second” for “first”, “Kpn1 restriction site, or with the NHEJ dsDNA containing an NdeI” for “Kpn1”, “CaCl2, with or without 0.5 millimolar glutathione (GSH),” for “CaCl2,”, “subjected to” for “HDR editing efficacy was quantitated by”

maize B104 protoplasts = experiment: Cell division rate by EdU staining (% EdU); details: for EdU staining mean %: Ca^2+ 100 mM, glutathione 0.5 mM, 90 h
maize A188 protoplasts = experiment: Protoplast viability (Evans blue staining / light microscope / hemocytometer); assay type: cell-based; details: for Viability (%): 1 mM GSH; for protoplast viability: 288 hours
Procedure: (§2) Separate suspensions of maize B73 and A188 protoplasts (2×10^5 cells per milliliter) were prepared in YPIM B-liquid medium containing various combinations of the added salts calcium chloride, potassium ascorbate, and magnesium chloride or magnesium sulfate. One-half milliliter aliquots of the suspensions were dispensed into a 24-well microtiter plate in the arrangement shown in Table 2, which lists the concentrations of calcium chloride (“Ca”), potassium ascorbate (“A”), and magnesium chloride (“MgCl2”) or magnesium sulfate (“MgSO4”) in millimolar values.
(§3) Viability was judged by Evans blue staining and visualization under a light microscope.
Separate suspensions of maize A188 protoplasts (2×10^5 cells per milliliter) were prepared in YPIM B-liquid medium containing calcium chloride at 0 or 50 millimolar. One-half milliliter aliquots of the suspensions were dispensed into a 24-well microtiter plate.
(§4) Viability was judged by visualization under a light microscope.
(§5) Separate suspensions of maize B73 and A188 protoplasts (2×10^5 cells per milliliter) were prepared in PIM B-liquid medium (identical to YPIM B-medium except with the 6-benzylaminopurine substituted with 0.022 milligrams/L thidiazuron) containing calcium chloride added at 0 or 50 millimolar. One-half milliliter aliquots of the suspensions were dispensed into a 24-well microtiter plate.
(§6) Separate suspensions of maize B73 and A188 protoplasts (2×10^5 cells per milliliter) were prepared in YPIM B-liquid medium containing (a) calcium chloride added at 100 millimolar, or (b) 1 millimolar glutathione, or (c) no added calcium or glutathione. One-milliliter aliquots of the suspensions were dispensed into a 24-well microtiter plate. At 16, 40, 64, and 136 hours of culture, 50-microliter samples were taken for hemocytometer analysis from each well; for the plates containing maize A188 protoplasts, parallel 50-microliter samples were taken from a replicate well at 16, 40, and 64 hours of culture for quantification using a Cellometer cell counter (Nexcelom Bioscience LLC, Lawrence, Mass.).
(§7) Viability was determined by Evans blue staining and quantification using a hemocytometer. Under conditions with high concentrations of calcium, Evans blue can create precipitates that interfere with cell counting; to prevent this, 5 microliters of an EDTA solution was added to the samples from the wells containing 100 millimolar calcium chloride immediately prior to staining.

maize B73 protoplasts = details: for Viability (%): 1 mM GSH; for protoplast viability: 288 hours
Procedure: as §2, §3
Separate suspensions of maize B73, winter wheat, soy, and strawberry protoplasts (2×10^5 cells per milliliter) were prepared in YPIM B-liquid medium containing calcium chloride at 0, 50, or 100 millimolar. One-half milliliter aliquots of the suspensions were dispensed into a 24-well microtiter plate.
Viability at day 8 of culture was judged by visualization under a light microscope.
Viability at day 13 was judged by Evans blue staining and visualization under a light microscope.
Separate suspensions of maize B73 protoplasts (2×10^5 cells per milliliter) were prepared in PIM B-liquid medium (identical to YPIM B-medium except with the 6-benzylaminopurine substituted with 0.022 milligrams/L thidiazuron) containing calcium chloride added at 0, 5, 20, 40, 70, or 100 millimolar. One-half milliliter aliquots of the suspensions were dispensed into a 24-well microtiter plate.
Viability was judged by visualization under a light microscope at day 7 and at day 14 of culture.
as §5, §4, §6, §7

[2] = test system: maize B73 and A188 protoplasts; experiment: Protoplast viability, statements pooled for both maize lines; assay type: cell-based; details: after 288 hours, various ascorbate concentrations (0.1-1 mM)
Procedure: as §2, §3
as §6, with “One-milliliter aliquots of the suspensions were dispensed into a 24-well microtiter plate.” left out
Viability was determined by Evans blue staining and quantification using a hemocytometer. […]

[3] = 100 mM added salt, YPIM B- medium

## N[C@@H](CCC(=O)N[C@@H](CS)C(=O)NCC(=O)O)C(=O)O [glutathione]
[1]; editing reagents: Null
  % KpnI (HDR): 0.00%
  % NdeI (NHEJ): 0.00%
[1]; editing reagents: RNP only
  % KpnI (HDR): 0.00%
  % NdeI (NHEJ): 0.00%
[1]; editing reagents: RNP plus HDR donor
  % KpnI (HDR): 5.0%
[1]; editing reagents: RNP plus HDR donor, listed as GSH
  % KpnI (HDR): 5.00%
[1]; editing reagents: RNP plus NHEJ donor
  % NdeI (NHEJ): about 15%
[1]; editing reagents: RNP plus NHEJ donor, listed as GSH
  % NdeI (NHEJ): 15.01%
Maize B104 protoplasts; O2 5%
  EdU staining mean %: 18.4%
Maize B104 protoplasts; O2 21%
  EdU staining mean %: 16.9%
Maize B104 protoplasts; addition of 0.5 millimolar glutathione, hypoxic conditions, 100 mM Ca^2+
  change in rate of cell division (% EdU): little change
Maize B104 protoplasts; addition of 0.5 millimolar glutathione, normal atmospheric oxygen, 100 mM Ca^2+
  increase in rate of cell division (% EdU): about 2 fold
Maize A188 protoplasts; 0 hours, hemocytometer
  Viability (%): 90%
Maize A188 protoplasts; 16 hours
  Viability (%): 69%
Maize A188 protoplasts; 40 hours
  Viability (%): 50%
Maize A188 protoplasts; 64 hours
  Viability (%): 50%
Maize A188 protoplasts; 136 hours
  Viability (%): 42%
Maize B73 protoplasts; 0 hours, hemocytometer
  Viability (%): 90%
Maize B73 protoplasts; 16 hours
  Viability (%): 77%
Maize B73 protoplasts; 40 hours
  Viability (%): 72%
Maize B73 protoplasts; 64 hours
  Viability (%): 48%
Maize B73 protoplasts; 136 hours
  Viability (%): 24%

## O=C1O[C@H]([C@@H](O)CO)C([O-])=C1O.[K+] [potassium ascorbate]
Maize A188 protoplasts; 0.2 millimolar and above added to wells with added calcium
  protoplast viability: slightly decrease viability
[2]
  viability: only slight effects

## [Cl-].[Cl-].[Mg+2] [magnesium chloride]
Plant protoplasts; about 40 millimolar or about 50 millimolar
  plant protoplast viability: Even higher levels of plant protoplast viability
Plant protoplasts; between or about 50 to about 100 millimolar, several titration experiments
  protoplast viability: greatest improvement in protoplast viability
Plant protoplasts; culture medium contains about 30 millimolar
  plant protoplast viability: Beneficial effects
Maize A188 protoplasts; [3]
  protoplast viability: about 70%
Maize B73 protoplasts; [3]
  protoplast viability: much higher viability than any well

## O=S(=O)([O-])[O-].[Mg+2] [magnesium sulfate]
Maize A188 protoplasts; 50 mM added salt, YPIM B- medium
  protoplast viability: 30-40%
Maize A188 protoplasts; 50 or 100 mM
  protoplast viability: only a modest improvement
Maize B73 protoplasts; 50 or 100 mM
  protoplast viability: only a modest improvement
